According to US20100062987A1, “ANTICONVULSIVE PHARMACEUTICAL COMPOSITIONS” (INSERM (Institut National de la Sante et de la Recherche …, priority 2006, published 2010):

Experiments:
[1] = tested on: BALB/c mice; assay: Retinal histology / immunolabelling of VGB-treated mice; type: in vivo; settings: VGB 250 mg/kg i.p. daily for 30 days
Description: (§1) BALB/c mice (16 treated, 10 controls) were purchased from Janvier (Le Genest-St-lsle, France) at six weeks. VGB dissolved in 0.9%
(§2) NaCl at 100 mg/m1 was intraperitoneally injected daily for 30 days at a final concentration of 250 mg/kg as described for animal treatment of epilepsy (Andre V, Ferrandon A, Marescaux C, Nehlig A. Vigabatrin protects against hippocampal damage but is not antiepileptogenic in the lithium-pilocarpine model of temporal lobe epilepsy. Epilepsy Res. 2001;47:99-117). This dose was slightly higher than that prescribed to adult patient ([…]), children (100 mg/kg), or infants ([…]) (Bialer M, Johannessen S I, Kupferberg H J et al. Progress report on new antiepileptic drugs: a summary of the Fifth Eilat Conference (EILAT V). Epilepsy Res. 2001;43:11-58).
(§3) Eye cups were fixed overnight at 4° C. in 4% (wt/vol) paraformaldehyde in phosphate buffered saline (PBS) 0.01 M, pH 7.4. After cryoprotection in PBS containing successively 10%, 20% and 30% sucrose at 4° C., the tissue was embedded in OCT (Labonord, Villeneuve d'Ascq, France). Vertical sections (8-10 μm thickness) were permeabilized for 5 minutes in PBS containing 0.1% Triton X-100 (Sigma, St. Louis, Mo.), rinsed, and incubated in PBS containing 1% bovine serum albumin (Eurobio, Les-Ulis, France), 0.1% Tween 20 (Sigma), and 0.1% sodium azide (Merck, Fontenay-Sous-Bois, France) for 2 hours at room temperature. The primary antibody added to the solution was incubated for 2 hours at room temperature. The polycolonal antibodies were directed against the protein kinase C alpha (PKCα) (1:2000, Sigma), VGluT1 (1:2000, Chemicon), Goα (K-20; 1:100, Santa Cruz), calbindin D-28K (1:500, Chemicon), mouse cone arrestin/ Luminaire junior (LUMIj) (1:20,000, ^27). The monoclonal antibodies were directed against Goα (1:2000, Chemicon), bassoon (1:100, StressGen) and calbindin D-28K (1:500, Sigma). After rinses, sections were incubated with the secondary antibody, goat anti-rabbit IgG or rabbit anti-mouse IgG conjugated to either Alexa TM594 or Alexa TM488 (1:500, Molecular Probes, Eugene, Oreg.) for 2 hours. The dye, diamidiphenyl-indole (DAPI) was added to the last incubated solutions. Sections were rinsed, mounted with Fluorsave reagent (Calbiochem, San Diege, Calif.) and viewed with a Leica microscope (LEICA DM 5000B) equipped with a Ropper scientific camera (Photometrics cool SNAP TM FX).

[2] = tested on: BALB/c mice; assay: Light dependence of the vigabatrin-elicited retinal toxicity (darkness vs 12h light/dark cycle); type: in vivo
Description: as §1, §2, §3
Albino rats only are sensitive to the VGB-elicited retinal toxicity (Butler W H, Ford G P, Newberne J W. A study of the effects of vigabatrin on the central nervous system and retina of Sprague Dawley and Lister-Hooded rats. Toxicol Pathol. 1987;15:143-148). […]

[3] = tested on: patients; settings: patients under therapeutical treatment; cited from earlier work
[4] = tested on: rats; settings: cited from earlier work
[5] = animals maintained in a dark room throughout the treatment

Structure (SMILES): C=CC(N)CCC(=O)O (stereo not shown) [VGB, 4-amino-5-hexenoic acid]
- Areas with a highly disorganized outer nuclear layer (ONL), animals affected ([1]; albino mice): 5 of 16
- Cone photoreceptor terminals, cone arrestin and Goα immunolabelling ([1]; mice): cone terminals remained in the OPL
- Cone photoreceptors, cone arrestin immunolabelling ([1]; mice): cone outer segments had disappeared
- Contact of rod photoreceptor terminals with postsynaptic neurons, VGLUT1/Goα and bassoon/PKCα double immunolabelling ([1]; mice): a few synaptic ribbons were not contacted by a rod bipolar cell dendrite
- Horizontal cell dendrites, calbindin immunolabelling ([1]; mice): horizontal cells extended their dendrites deep into the ONL
- ON bipolar cell dendrites, Goα immunolabelling ([1]; mice): extended their dendrites deep into the ONL
- Photoreceptor synaptic ribbon, bassoon immunolabelling ([1]; mice): punctuate labelling was observed to penetrate deep into the ONL
- Photoreceptor synaptic vesicles, VGLUT1 immunolabelling ([1]; mice): observed deep into the ONL
- Rod and cone ON bipolar cell plasticity, PKCα and Goα double immunolabelling ([1]; mice): both rod and cone ON bipolar cells underwent plasticity
- GFAP staining of glial Muller cells ([1]; mice, vs control albino mice): not increased
- Bipolar cell dendritic growth in the ONL [2, 5]: found not to grow dendrites in the ONL
- Photoreceptor terminal withdrawal in the ONL [2, 5]: did not retract their terminals in the ONL
- Other retinal damages like ONL disorganization ([2]; animals maintained in darkness): not observed
- Bipolar cell dendritic growth and photoreceptor terminal withdrawal ([2]; animals under the 12h light/dark cycle): showed the bipolar cell dendritic growth and the photoreceptor terminal withdrawal
- Undesirable effects on vision [3]: irreversible constriction of the visual field
- Major retinal changes [4]: retinal architecture disorganization, a major glial reaction, cone damages and photoreceptor apoptosis
